Like-named read-outs stand apart in the source and are kept apart here.
Tests used:
[1] = tested on: A549; experiment: MTS cell viability assay; assay type: cell-based; settings: Homo sapiens, read-out: MTS NCI A549 GI50
Summary of the method: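 A549 and a second human cancer line seeded in DMEM/10% FBS, allowed 16–24 h to attach, then exposed 72 h at 37 °C, 5% CO2 to serially diluted compound (final DMSO 0.33%). Viability measured by MTS.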

[2] = target: T1, HsEg5 (Homo sapiens, UniProt P52732); experiment: Luminescent detection of HsEg5 ATPase activity (Kinase-Glo Plus); assay type: biochemical
T1 sequence (P52732 18-359 limits assumed): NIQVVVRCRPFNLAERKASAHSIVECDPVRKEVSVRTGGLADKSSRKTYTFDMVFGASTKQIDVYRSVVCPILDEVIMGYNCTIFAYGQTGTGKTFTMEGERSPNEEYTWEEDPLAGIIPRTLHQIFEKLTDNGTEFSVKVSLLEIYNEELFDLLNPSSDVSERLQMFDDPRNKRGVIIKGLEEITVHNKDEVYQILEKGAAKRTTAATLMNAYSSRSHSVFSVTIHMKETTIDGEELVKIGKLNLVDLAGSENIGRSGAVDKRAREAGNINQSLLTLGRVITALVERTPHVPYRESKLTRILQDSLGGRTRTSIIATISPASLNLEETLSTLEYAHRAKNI
Description: Purified HsEg5 motor fragment was activated by mixture with preformed MT polymer (Cytoskeleton, Denver, Colo.) at room temperature for 20 minutes. MT activated ATPase activity was measured using Kinase-Glo® Plus Luminescent Kinase Assay (Promega, Madison, Wis.).
For inhibitor screening, 5 μL of compounds were incubated with 20 μL of MT-activated HsEg5 such that the final concentrations for compound range from 100 μM to 5 nM (1 to 3 serial dilutions, final concentration) and final concentration for HsEg5 is 25 nM. The mixture was incubated at room temperature for 20 minutes with mild shaking. The screening assay contained 0.3% DMSO in all reaction wells. We used wells containing only DMSO as negative controls and wells without ATP as background. Addition of 15 μL of 13 μM ATP (final concentration of 5 μM) initiated the ATP hydrolysis reaction. The 40 μL-reaction was allowed to proceed at room temperature for 45 minutes before addition of 40 μL of Kinase®-Glo Plus. After 15-minute development at room temperature, the luminescent was measured.
Eg5 IC50 data was generated using both fluorescence and Luminescence detection assays as described above. Compounds I-69 were screened using automated fluorescence assay while compounds 70-83 were screened using Luminescence detection assay. (See reference “Zhang B, Senator D, Wilson C J, Ng S C. (2005) “Development of a high-throughput robotic fluorescence-based assay for HsEg5 inhibitor screening” Anal Biochem. 345:326-335″).

[3] = tested on: NCI-H460; experiment: MTS cell viability assay; assay type: cell-based, human; settings: Homo sapiens, NCI-H460, 72 h
Summary of the method: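 GI50 values come from tetrazolium (MTS) absorbance at 490 nm, measured within two hours of SDS addition. Cells had been treated with compound for 72 hours in supplemented DMEM, then given […] PMS 7.67 mg/L for 4 hours.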

[4] = target: T1, HsEg5; experiment: Fluorescence detection of HsEg5 ATPase activity (ADP Quest, automated); assay type: biochemical
Summary of the method: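 Microtubule-activated HsEg5 motor fragment (10 nM, 500 nM MTs) preincubated 10 min with compound, then 20 μM ATP for 10 min at room temperature in Pipes pH 7.0, MgCl2, paclitaxel, 0.3% DMSO. ADP detected via coupled-enzyme resorufin fluorescence; IC50 over 100 μM–5 nM.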

[5] = A549, 72 h, A549 non small cell lung, 72 hours
[6] = read-out: MTS NCI H460 GI50, NCI-H460 non small cell lung, 72 hours
[7] = A549 non small cell lung, 72 hours

IC50 [2] | Structure (SMILES) | GI50 ([1]; A549, 72 h) | GI50 ([3]; read-out: MTS NCI H460 GI50) | GI50 [1, 5] | IC50 [4] | GI50 [3, 6] | GI50 [1, 7]
550 nM | C#CC[C@H](c1nc2cc(Cl)ccc2c(=O)n1Nc1ccccc1)N(CCCN)C(=O)c1c(F)cc(Cl)cc1F [Compound 79] | 1300 nM | 430 nM |  |  |  | 
30 nM | C#CC[C@H](c1nc2cc(Cl)ccc2c(=O)n1Nc1ccccc1)N(CCCN)C(=O)c1cccc(F)c1F [Compound 82, (R)—N-(3-Aminopropyl)-N-(1-(7-chloro-4-oxo-3-(phenylamino)-3,4-dihydroquinazolin-2-yl)but-3-ynyl)-2,3-difluorobenzamide] |  |  |  |  |  | 
90 nM | C#CC[C@H](c1nc2cc(Cl)ccc2c(=O)n1Nc1ccccc1)N(CCCN)C(=O)c1ccc(C)cc1 [Compound 75, N-(3-Amino-propyl)-N—[(R)-1-(7-chloro-4-oxo-3-phenylamino-3,4-dihydro-quinazolin-2-yl)-but-3-ynyl]-4-methyl-benzamide] | 2800 nM | 1500 nM |  |  |  | 
6600 nM | C#CC[C@H](c1nc2cccnc2c(=O)n1Nc1ccccc1)N(CCCN)C(=O)c1cccc(Cl)c1F [Compound 83, (R)—N-(3-Aminopropyl)-3-chloro-2-fluoro-N-(1-(4-oxo-3-(phenylamino)-3,4-dihydropyrido[3,2-d]pyrimidin-2-yl)but-3-ynyl)benzamide] | > 100000 nM | 27000 nM |  |  |  | 
40 nM | C#CC[C@H](c1nc2cc(Cl)ccc2c(=O)n1Nc1ccccc1)N(CCCN)C(=O)c1ccc(OC)c(F)c1F [Compound 78] | 1450 nM | 700 nM |  |  |  | 
70 nM | C#CC[C@H](c1nc2cc(Cl)ccc2c(=O)n1Nc1ccccc1)N(CCCN)C(=O)c1c(OC)ccc(F)c1F [Compound 77] | 860 nM | 530 nM |  |  |  | 

Further lines, the compound ahead of its results:

Structure (SMILES) | IC50 [2] | GI50 ([1]; A549, 72 h) | GI50 ([3]; read-out: MTS NCI H460 GI50) | GI50 [1, 5] | IC50 [4] | GI50 [3, 6] | GI50 [1, 7]
C#CC[C@H](c1nc2cc(Cl)ccc2c(=O)n1Nc1ccccc1)N(CCCN)C(=O)c1cc(F)c(F)c(F)c1F [Compound 72, (R)—N-(3-Aminopropyl)-N-(1-(7-chloro-4-oxo-3-(phenylamino)-3,4-dihydroquinazolin-2-yl)but-3-ynyl)-2,3,4,5-tetrafluorobenzamide] | 40 nM | 620 nM | 330 nM |  |  |  | 
C#CC[C@H](c1nc2cc(Cl)ccc2c(=O)n1Nc1ccccc1)N(CCCN)C(=O)c1cc2ccccc2s1 [Compound 73, (R)—N-(3-Aminopropyl)-N-(1-(7-chloro-4-oxo-3-(phenylamino)-3,4-dihydroquinazolin-2-yl)but-3-ynyl)benzo[b]thiophene-2-carboxamide] | 120 nM | 490 nM | 330 nM |  |  |  | 
CCC(c1nc2cc(Cl)ccc2c(=O)n1Nc1ccccc1)N(CCCN)C(=O)c1ccc(Cl)c(Cl)c1 (stereo not shown) [Compound 6, N-(3-Aminopropyl)-N-[1-(3-anilino-7-chloro-4-oxo-3,4-dihydroquinazolin-2-yl)propyl]-3,4-dichlorobenzamide] |  |  |  | 1870 nM | 418 nM | 1160 nM | 
CCC(c1nc2cc(Cl)ccc2c(=O)n1Nc1ccccc1)N(CCCN)C(=O)c1ccc(C)c(F)c1 (stereo not shown) [Compound 16, N-(3-Aminopropyl)-N-[1-(3-anilino-7-chloro-4-oxo-3,4-dihydroquinazolin-2-yl)propyl]-3-fluoro-4-methylbenzamide] |  |  | 929 nM |  | 1150 nM |  | 1360 nM
C#CCC(c1nc2cc(Cl)ccc2c(=O)n1Nc1ccccc1)N(CCCN)C(=O)c1cc(F)c(Cl)cc1F (stereo not shown) [Compound 56, N-(3-Aminopropyl)-N-[1-(3-anilino-7-chloro-4-oxo-3,4-dihydroquinazolin-2-yl)but-3-yn-1-yl]-4-chloro-2,5-difluorobenzamide] |  |  | 1860 nM |  | 138 nM |  | 3820 nM
CCC(c1nc2cc(Cl)ccc2c(=O)n1Nc1ccccc1)N(CCCN)C(=O)c1ccc(I)cc1 (stereo not shown) [Compound 15, N-(3-Aminopropyl)-N-[1-(3-anilino-7-chloro-4-oxo-3,4-dihydroquinazolin-2-yl)propyl]-4-iodobenzamide] |  |  |  | 3080 nM | 1650 nM | 2270 nM | 
